Experimental data published in patent US20230234948A1, “CYCLOPROPYL DIHYDROQUINOLINE SULFONAMIDE COMPOUNDS” (AMGEN INC., priority 2020, published 2023).

Legend:
[1] = test system: CYP3A4; assay: Human CYP 3A4 induction assay (mRNA, cryopreserved human hepatocytes); assay type: in vitro ADME; conditions: 10 uM test compound, 72 hours, percent of control (rifampin positive control)
Procedure: Human CYP 3A4 Induction Assay
Cryopreserved human hepatocytes were seeded in 96-well collagen coated plates at 70,000 cells per well in hepatocyte plating media (HPM, final concentrations: 1× Dulbecco's Modified Eagle's Medium, 0.1 μM dexamethasone, 10% fetal bovine serum, 1×ITS, 1×PSG) followed by incubation at 37° C. under 5% CO2 and 90% relative humidity for 2 days to allow hepatocytes to form a confluent layer. On Day 3, hepatocytes were treated with either test compound or rifampin (20 μM, positive control for CYP3A induction) prepared in hepatocyte incubation media ((HIM, final concentrations: 1× William's Medium E, 0.1 μM dexamethasone, 1×ITS, 1×PSG). Treatment was performed for 72 hours with either 2 concentrations (2 μM or 10 μM) or a range of concentrations (0.001 μM to 100 μM) of the test compound to obtain full dose-response curve. Fresh media containing the relevant concentrations of the test compound was replaced every day until the samples were processed. After 72 hours of incubation, samples were processed for mRNA analysis using bDNA technology using manufacturer's instructions (Affymetrix, Fremont, Calif.). Cell viability was tested at the end of the experiment using MTT assay kit (Roche Diagnostics, Basel, Switzerland). Data was analyzed and presented as percent of control (POC) and Emax and EC50 obtained when appropriate according to guidance from Center for Drug Evaluation and Research (CDER), 2006, Guidance for Industry, Drug Interaction Studies—Study Design, Data Analysis, and Implications for Dosing and Labeling.
Cryopreserved human hepatocytes were seeded in 96-well collagen coated plates at 70,000 cells per well in hepatocyte plating media (HPM, final concentrations: 1× Dulbecco's Modified Eagle's Medium, 0.1 μM dexamethasone, 10% fetal bovine serum, 1×ITS, 1×PSG) followed by incubation at 37° C. under 5% CO2 and 90% relative humidity for 2 days to allow hepatocytes to form a confluent layer. On Day 3, hepatocytes were treated with either test compound or rifampin (20 μM, positive control for CYP3A induction) prepared in hepatocyte incubation media ((HIM, final concentrations: 1× William's Medium E, 0.1 μM dexamethasone, 1×ITS, 1×PSG). Treatment was performed for 72 hours with either 2 concentrations (2 μM or 10 μM) or a range of concentrations (0.001 μM to 100 μM) of the test compound to obtain full dose-response curve. Fresh media containing the relevant concentrations of the test compound was replaced every day until the samples were processed. After 72 hours of incubation, samples were processed for mRNA analysis using bDNA technology using manufacturer's instructions (Affymetrix, Fremont, Calif.). Cell viability was tested at the end of the experiment using MTT assay kit (Roche Diagnostics, Basel, Switzerland). Data was analyzed and presented as percent of control (POC) and Emax and EC50 obtained when appropriate, as described in Halladay, J. et al, 2012, An “all-inclusive” 96-well cytochrome P450 induction method: Measuring enzyme activity, mRNA levels, protein levels, and cytotoxicity from one well using cryopreserved human hepatocytes, Pharmacological and Toxicological Methods, 66:270-275.
The cytochrome P450 (CYP) is a well-known superfamily of enzymes that are responsible for the oxidative and reductive metabolic transformation of medications used in clinical practice. In addition, the CYP enzymes are commonly associated with causing many clinically relevant drug-drug interactions. […]

[2] = biological target: T1, Human NaV1.7 (Homo sapiens, UniProt Q15858); assay: Ionworks Barracuda (IWB) automated patch clamp assay; assay type: cell-based; conditions: human NaV1.7 in HEK cells, population patch-clamp, state- and use-dependent voltage protocol; read-out: hNaV1.7 IWB-U IC50
T1 construct: expressed in transfected cells; host or cells: Spiking HEK cells (without Kir2.1 transfection)
T1 sequence (Q15858 whole entry): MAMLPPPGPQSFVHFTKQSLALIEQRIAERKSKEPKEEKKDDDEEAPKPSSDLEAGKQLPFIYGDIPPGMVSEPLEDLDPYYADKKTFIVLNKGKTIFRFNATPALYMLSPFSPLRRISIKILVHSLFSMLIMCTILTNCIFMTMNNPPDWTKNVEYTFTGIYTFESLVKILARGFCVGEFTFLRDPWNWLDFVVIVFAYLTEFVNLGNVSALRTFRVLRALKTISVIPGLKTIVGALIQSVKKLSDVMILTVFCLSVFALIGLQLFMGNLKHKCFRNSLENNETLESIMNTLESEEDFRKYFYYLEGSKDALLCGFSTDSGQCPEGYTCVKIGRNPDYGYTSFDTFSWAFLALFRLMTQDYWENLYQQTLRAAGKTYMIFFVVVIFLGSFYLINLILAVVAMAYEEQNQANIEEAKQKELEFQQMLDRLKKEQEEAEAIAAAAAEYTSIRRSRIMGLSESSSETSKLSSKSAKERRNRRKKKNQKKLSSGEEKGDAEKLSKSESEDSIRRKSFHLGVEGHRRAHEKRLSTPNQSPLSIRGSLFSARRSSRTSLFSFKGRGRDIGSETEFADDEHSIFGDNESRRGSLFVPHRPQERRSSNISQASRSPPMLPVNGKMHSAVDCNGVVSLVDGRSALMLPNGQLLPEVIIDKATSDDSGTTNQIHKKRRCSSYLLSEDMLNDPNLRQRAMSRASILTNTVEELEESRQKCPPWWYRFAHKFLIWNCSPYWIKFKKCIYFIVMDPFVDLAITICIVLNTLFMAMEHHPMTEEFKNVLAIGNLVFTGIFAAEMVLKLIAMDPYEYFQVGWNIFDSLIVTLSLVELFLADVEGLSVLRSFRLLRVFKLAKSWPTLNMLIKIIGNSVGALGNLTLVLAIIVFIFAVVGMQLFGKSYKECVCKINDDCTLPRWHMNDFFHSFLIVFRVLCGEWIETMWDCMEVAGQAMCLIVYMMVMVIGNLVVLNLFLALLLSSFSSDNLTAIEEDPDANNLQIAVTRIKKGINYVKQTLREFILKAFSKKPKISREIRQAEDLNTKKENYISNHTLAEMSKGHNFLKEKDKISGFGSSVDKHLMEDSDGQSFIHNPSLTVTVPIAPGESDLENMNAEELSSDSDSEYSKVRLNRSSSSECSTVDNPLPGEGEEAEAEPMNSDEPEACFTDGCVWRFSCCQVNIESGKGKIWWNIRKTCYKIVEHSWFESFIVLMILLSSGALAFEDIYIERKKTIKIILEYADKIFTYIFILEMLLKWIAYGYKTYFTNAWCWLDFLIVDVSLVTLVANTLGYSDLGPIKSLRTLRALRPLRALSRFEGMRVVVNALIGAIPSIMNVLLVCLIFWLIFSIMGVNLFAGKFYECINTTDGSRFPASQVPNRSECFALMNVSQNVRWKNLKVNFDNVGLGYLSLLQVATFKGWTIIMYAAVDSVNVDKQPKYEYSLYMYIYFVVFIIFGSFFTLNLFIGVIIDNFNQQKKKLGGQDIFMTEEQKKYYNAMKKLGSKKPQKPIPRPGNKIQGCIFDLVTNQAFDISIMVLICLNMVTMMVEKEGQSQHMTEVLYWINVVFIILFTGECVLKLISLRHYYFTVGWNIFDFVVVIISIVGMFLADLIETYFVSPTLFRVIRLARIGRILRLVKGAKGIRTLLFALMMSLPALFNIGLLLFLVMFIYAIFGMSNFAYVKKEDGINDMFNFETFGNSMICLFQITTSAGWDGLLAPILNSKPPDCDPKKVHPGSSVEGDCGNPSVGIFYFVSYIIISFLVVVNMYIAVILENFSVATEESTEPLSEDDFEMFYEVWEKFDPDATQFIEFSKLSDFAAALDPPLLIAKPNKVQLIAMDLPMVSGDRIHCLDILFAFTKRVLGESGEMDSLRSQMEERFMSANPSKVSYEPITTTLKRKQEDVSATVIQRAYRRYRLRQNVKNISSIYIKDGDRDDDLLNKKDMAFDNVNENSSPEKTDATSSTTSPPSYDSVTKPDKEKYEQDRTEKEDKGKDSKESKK

| CYP3A4 mRNA Induct Hu 10 uM POC [1] | IC50 [2] | Compound |
| --- | --- | --- |
| 24.57% | – | COc1cc([C@@H]2C[C@H]2C(F)(F)F)c(F)cc1-n1c(=O)ccc2cc(S(=O)(=O)Nc3ccon3)c(F)cc21 (atropisomer, axis not shown; (P)) [Example 45, (P)-7-fluoro-1-(5-fluoro-2-methoxy-4-((1R,2R)-2-(trifluoromethyl)cyclopropyl)phenyl)-N-(isoxazol-3-yl)-2-oxo-1,2-dihydroquinoline-6-sulfonamide] |
| 29.06% | 10 nM | COc1cc([C@@H]2C[C@H]2C(F)(F)F)ccc1-n1c(=O)ccc2cc(S(=O)(=O)Nc3ccon3)ccc21 (single isomer, unassigned) [Example 38] |
| 38.35% | 8 nM | COc1cc([C@H]2C[C@@H]2C(F)(F)F)ccc1-n1c(=O)ccc2cc(S(=O)(=O)Nc3ccon3)ccc21 (single isomer, unassigned) [Example 39] |

| Compound | CYP3A4 mRNA Induct Hu 10 uM POC [1] | IC50 [2] |
| --- | --- | --- |
| COc1cc([C@@H]2C[C@H]2C(F)(F)F)c(F)cc1-n1c(=O)ccc2cc(S(=O)(=O)Nc3nncs3)ccc21 (atropisomer, axis not shown; (P)) [Example 40, (P)-1-(5-fluoro-2-methoxy-4-((1R,2R)-2-(trifluoromethyl)cyclopropyl)phenyl)-2-oxo-N-(1,3,4-thiadiazol-2-yl)-1,2-dihydroquinoline-6-sulfonamide] | 10.79% | – |
| (P)-1-(5-fluoro-2-methoxy-4-((1S,2S)-2-((trifluoromethoxy)methyl)cyclopropyl)phenyl)-N-(isoxazol-3-yl)-2-oxo-1,2-dihydroquinoline-6-sulfonamide [Example 33] | 139.9% | 4 nM |
